These results are taken from PMC8637530, “Modulatory Actions of the Glycine Receptor β Subunit on the Positive Allosteric Modulation of Ethanol in α2 Containing Receptors” (Frontiers in Molecular Neuroscience, 2021).

Holding throughout (assay): whole-cell patch clamp, HEK293
Holding throughout (format): cell-based
Holding throughout (settings): -60 mV, 20-24 °C, pH 7.4; agonist

The test system of one assay is T1, α1β GlyR (heteromeric).
T1 construct: gene GLRA1; recombinant heteropentamer in HEK293 cells, excess beta cDNA (1 μg alpha/EGFP plus 4 μg beta)
From the text: whole-cell patch clamp, HEK293 on α1β GlyR (heteromeric)

For another assay, the system named is T2, α2 GlyR (homomeric).
T2 construct: gene GLRA2; recombinant homomeric receptor expressed in HEK293 cells
From the text: whole-cell patch clamp, HEK293 on α2 GlyR (homomeric)

In another assay the test system is T3, α1 GlyR (homomeric).
T3 construct: gene GLRA1; recombinant homomeric receptor expressed in HEK293 cells; EGFP co-transfected
From the text: whole-cell patch clamp, HEK293 on α1 GlyR (homomeric)

With `NCC(=O)O` [Glycine], the EC50 in the assay with α1β GlyR (heteromeric) turned out to be […]; with α2 GlyR (homomeric), 86 ± 2 µM; with α1 GlyR (homomeric), […].

Usually EC50 stands for the concentration giving half of the maximal effect. A higher EC50 goes with weaker potency.
